{"source": "ChEMBL document CHEMBL1201862", "about": "“PubChem BioAssay data set” (2004)", "test_in_all_cases": "NCI anticancer screen, dose series, 48 h", "key": {"[1]": {"test_system": "XF498"}, "[2]": {"test_system": "U-251"}, "[3]": {"test_system": "HL-60"}, "[4]": {"test_system": "KM-20L2"}, "[5]": {"test_system": "TK-10"}, "[6]": {"test_system": "HCT-15"}, "[7]": {"test_system": "M14"}, "[8]": {"test_system": "Malme-3M"}, "[9]": {"test_system": "SF-295"}, "[10]": {"test_system": "NCI-H226"}, "[11]": {"test_system": "MOLT-4"}, "[12]": {"test_system": "LOX IMVI"}, "[13]": {"test_system": "M19-MEL"}, "[14]": {"test_system": "OVCAR-4"}, "[15]": {"test_system": "SK-OV-3"}, "[16]": {"test_system": "A498"}, "[17]": {"test_system": "HCT-116"}, "[18]": {"test_system": "KM12"}, "[19]": {"test_system": "SK-MEL-28"}, "[20]": {"test_system": "OVCAR-8"}, "[21]": {"test_system": "NCI-H460"}, "[22]": {"test_system": "SN12C"}, "[23]": {"test_system": "SR"}, "[24]": {"test_system": "OVCAR-5"}, "[25]": {"test_system": "A549"}, "[26]": {"test_system": "SNB-75"}, "[27]": {"test_system": "DLD-1"}, "[28]": {"test_system": "SK-MEL-2"}, "[29]": {"test_system": "DMS-114"}, "[30]": {"test_system": "SNB-78"}, "[31]": {"test_system": "786-0"}, "[32]": {"test_system": "CCRF-CEM"}, "[33]": {"test_system": "EKVX"}, "[34]": {"test_system": "NCI-H23"}, "[35]": {"test_system": "SW-620"}, "[36]": {"test_system": "HOP-62"}, "[37]": {"test_system": "NCI-H522"}, "[38]": {"test_system": "RPMI-8226"}, "[39]": {"test_system": "SNB-19"}, "[40]": {"test_system": "COLO 205"}, "[41]": {"test_system": "UO-31"}, "[42]": {"test_system": "ACHN"}, "[43]": {"test_system": "HT-29"}, "[44]": {"test_system": "K562"}, "[45]": {"test_system": "IGROV-1"}, "[46]": {"test_system": "UACC-62"}, "[47]": {"test_system": "SK-MEL-5"}, "[48]": {"test_system": "DMS-273"}, "[49]": {"test_system": "SF-268"}, "[50]": {"test_system": "UACC-257"}, "[51]": {"test_system": "HCC 2998"}, "[52]": {"test_system": "OVCAR-3"}, "[53]": {"test_system": "LXFL 529"}}, "note": "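A five-concentration, 48-hour dose response in 96-well plates underlies each endpoint, interpolated linearly between surrounding concentrations. GI50 marks 50% less growth.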 Calls of active or inactive are those of the source. Cut-off read from the data, not from the text of the source: active = GI50 up to about 1.1 µM and inactive = higher."}
{"molecule": "CCN1CCC(O)(/C=C/c2ccc(Cl)cc2)C(C(=O)/C=C/c2ccc(Cl)cc2)C1", "note": "(stereo not drawn)", "values": [{"measurement": "GI50", "setting": "[1]", "value": "81.1 µM (inactive)"}, {"measurement": "GI50", "setting": "[2]", "value": "19 µM (inactive)"}, {"measurement": "GI50", "setting": "[3]", "value": "17.5 µM (inactive)"}, {"measurement": "GI50", "setting": "[4]", "value": "32.1 µM (inactive)"}, {"measurement": "GI50", "setting": "[5]", "value": "31.1 µM (inactive)"}, {"measurement": "GI50", "setting": "[6]", "value": 21.7, "unit": "µM"}, {"measurement": "GI50", "setting": "[7]", "value": "34.6 µM (inactive)"}, {"measurement": "GI50", "setting": "[8]", "value": "> 100 µM (inactive)"}, {"measurement": "GI50", "setting": "[9]", "value": "20.6 µM (inactive)"}, {"measurement": "GI50", "setting": "[10]", "value": "20.8 µM (inactive)"}, {"measurement": "GI50", "setting": "[11]", "value": "23.9 µM (inactive)"}, {"measurement": "GI50", "setting": "[12]", "value": "16.2 µM (inactive)"}, {"measurement": "GI50", "setting": "[13]", "value": "29.9 µM (inactive)"}, {"measurement": "GI50", "setting": "[14]", "value": "29.6 µM (inactive)"}, {"measurement": "GI50", "setting": "[15]", "value": "23 µM (inactive)"}, {"measurement": "GI50", "setting": "[16]", "value": "17.3 µM (inactive)"}, {"measurement": "GI50", "setting": "[17]", "value": "3.63 µM (inactive)"}, {"measurement": "GI50", "setting": "[18]", "value": "15.2 µM (inactive)"}, {"measurement": "GI50", "setting": "[19]", "value": "21.6 µM (inactive)"}, {"measurement": "GI50", "setting": "[20]", "value": "24.4 µM (inactive)"}, {"measurement": "GI50", "setting": "[21]", "value": "28 µM (inactive)"}, {"measurement": "GI50", "setting": "[22]", "value": "> 10 µM (inactive)"}, {"measurement": "GI50", "setting": "[23]", "value": "34.5 µM (inactive)"}, {"measurement": "GI50", "setting": "[24]", "value": "30.8 µM (inactive)"}, {"measurement": "GI50", "setting": "[25]", "value": "25.4 µM (inactive)"}, {"measurement": "GI50", "setting": "[26]", "value": "33.9 µM (inactive)"}, {"measurement": "GI50", "setting": "[27]", "value": "16.5 µM (inactive)"}, {"measurement": "GI50", "setting": "[28]", "value": "69.3 µM (inactive)"}, {"measurement": "GI50", "setting": "[29]", "value": "26.6 µM (inactive)"}, {"measurement": "GI50", "setting": "[30]", "value": "45.5 µM (inactive)"}, {"measurement": "GI50", "setting": "[31]", "value": "20 µM (inactive)"}, {"measurement": "GI50", "setting": "[32]", "value": "22.7 µM (inactive)"}, {"measurement": "GI50", "setting": "[33]", "value": "43.9 µM (inactive)"}, {"measurement": "GI50", "setting": "[34]", "value": "20.2 µM (inactive)"}, {"measurement": "GI50", "setting": "[35]", "value": "21.2 µM (inactive)"}, {"measurement": "GI50", "setting": "[36]", "value": "> 100 µM (inactive)"}, {"measurement": "GI50", "setting": "[37]", "value": "28.4 µM (inactive)"}, {"measurement": "GI50", "setting": "[38]", "value": "2.88 µM (inactive)"}, {"measurement": "GI50", "setting": "[39]", "value": "71.6 µM (inactive)"}, {"measurement": "GI50", "setting": "[40]", "value": "71.4 µM (inactive)"}, {"measurement": "GI50", "setting": "[41]", "value": "31.3 µM (inactive)"}, {"measurement": "GI50", "setting": "[42]", "value": "33 µM (inactive)"}, {"measurement": "GI50", "setting": "[43]", "value": "18.6 µM (inactive)"}, {"measurement": "GI50", "setting": "[44]", "value": "28.1 µM (inactive)"}, {"measurement": "GI50", "setting": "[45]", "value": "27.1 µM (inactive)"}, {"measurement": "GI50", "setting": "[46]", "value": "17.3 µM (inactive)"}, {"measurement": "GI50", "setting": "[47]", "value": "13.5 µM (inactive)"}, {"measurement": "GI50", "setting": "[48]", "value": "28.4 µM (inactive)"}, {"measurement": "GI50", "setting": "[49]", "value": "30.4 µM (inactive)"}, {"measurement": "GI50", "setting": "[50]", "value": "17.5 µM (inactive)"}, {"measurement": "GI50", "setting": "[51]", "value": "18.4 µM (inactive)"}, {"measurement": "GI50", "setting": "[52]", "value": "18.9 µM (inactive)"}, {"measurement": "GI50", "setting": "[53]", "value": "14.7 µM (inactive)"}]}
